The text below walks through data of patent publication US8440710B2, “HSL inhibitors useful in the treatment of diabetes” (Hoffmann-La Roche Inc., priority 2009, dated 2013).

SMILES strings stand for the structures.

In general, IC50 refers to the concentration at which inhibition is half-maximal.

This assay deals with T1, human HSL (Homo sapiens, UniProt Q05469).
T1 construct: generate a full length human HSL ORF with a 3′-His6 tag; made in house; host or cells: High 5 insect cells (baculovirus, pFast-BAC)
T1 sequence (Q05469 1-1076): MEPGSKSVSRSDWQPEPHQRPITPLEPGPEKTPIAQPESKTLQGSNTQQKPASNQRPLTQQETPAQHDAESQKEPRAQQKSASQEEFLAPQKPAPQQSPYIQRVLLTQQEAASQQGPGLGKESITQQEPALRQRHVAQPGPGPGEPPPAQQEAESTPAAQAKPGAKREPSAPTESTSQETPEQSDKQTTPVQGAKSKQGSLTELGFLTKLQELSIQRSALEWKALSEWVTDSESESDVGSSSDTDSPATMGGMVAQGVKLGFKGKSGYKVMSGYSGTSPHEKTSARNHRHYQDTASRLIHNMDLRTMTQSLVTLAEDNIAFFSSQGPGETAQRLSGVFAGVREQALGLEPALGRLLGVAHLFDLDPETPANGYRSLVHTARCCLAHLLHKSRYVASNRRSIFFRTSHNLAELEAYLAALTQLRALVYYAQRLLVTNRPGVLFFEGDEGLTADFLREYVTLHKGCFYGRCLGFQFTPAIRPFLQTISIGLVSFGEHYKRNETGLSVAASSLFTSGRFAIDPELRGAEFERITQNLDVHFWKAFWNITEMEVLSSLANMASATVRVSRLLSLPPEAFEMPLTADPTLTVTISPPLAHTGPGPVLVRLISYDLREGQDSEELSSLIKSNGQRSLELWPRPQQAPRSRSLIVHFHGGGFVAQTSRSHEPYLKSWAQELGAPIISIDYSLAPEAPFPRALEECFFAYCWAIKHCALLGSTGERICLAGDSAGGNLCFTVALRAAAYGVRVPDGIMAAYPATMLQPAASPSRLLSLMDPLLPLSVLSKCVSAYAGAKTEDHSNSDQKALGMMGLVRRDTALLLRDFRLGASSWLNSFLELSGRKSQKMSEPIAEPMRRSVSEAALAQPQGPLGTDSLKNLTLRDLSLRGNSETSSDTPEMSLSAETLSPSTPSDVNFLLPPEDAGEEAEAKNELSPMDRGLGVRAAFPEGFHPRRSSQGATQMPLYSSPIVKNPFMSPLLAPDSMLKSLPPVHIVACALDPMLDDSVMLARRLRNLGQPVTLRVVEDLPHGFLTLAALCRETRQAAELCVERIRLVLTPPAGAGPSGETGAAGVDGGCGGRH
In words: Human Hormone-Sensitive Lipase (HSL) enzyme inhibition assay (colorimetric, DMPT substrate). Format: biochemical. The settings on record: human full length HSL-His6, 2,3-dimercapto-1-propanol tributyrate substrate, 37° C. 20 minutes, absorbance at 405 nm; read-out: HSL hum IC50. The essentials:
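Full-length human HSL with C-terminal His6, expressed in baculovirus-infected High 5 cells and Ni-NTA purified, was added (15 ug/ml stock) to 1.5 mM DMPT in 100 mM MOPS pH 7.2, 0.2 mg/ml fatty acid-free BSA containing compound. After 20 min at 37 °C, DTNB with SDS/Triton X-100 was added; A405 read after 15 min at RT.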
As to `COC[C@]1(O)CC[C@]2(CCN(c3ccc([C@@H](OC)C(F)(F)F)cc3)C2=O)CC1` [Example 139, (5α,8α)-8-Hydroxy-8-(methoxymethyl)-2-(4-((R)-2,2,2-trifluoro-1-methoxyethyl)phenyl)-2-aza-spiro[4.5]decan-1-one], the IC50 was 40 nM. In the case of `CNC(=O)O[C@H]1CC[C@@]2(CCN(c3ccc(OC(F)(F)F)cc3)C2=O)CC1` [Example 17, Methyl-carbamic acid [(5α,8β)-1-oxo-2-(4-trifluoromethoxy-phenyl)-2-aza-spiro[4.5]dec-8-yl]ester] it was 80 nM; in that of `O=C1N(c2ccc(OC(F)(F)F)cc2)CC[C@]12CC[C@@H](S(=O)(=O)c1ccccc1)CC2` [Example 53, (5α,8β)-8-Benzenesulfonyl-2-(4-trifluoromethoxy-phenyl)-2-aza-spiro[4.5]decan-1-one], 30 nM; in that of `C=Cc1nnn(C)c1[C@]1(O)CC[C@]2(CCN(c3ccc(OC(C)C)cc3)C2=O)CC1` [Example 222, (5α,8α)-8-hydroxy-2-(4-isopropoxyphenyl)-8-(1-methyl-4-vinyl-1H-1,2,3-triazol-5-yl)-2-aza-spiro[4.5]decan-1-one], 103 nM. As for `CCCOC[C@]1(O)CC[C@@]2(CCN(c3ccc(OCC(F)(F)F)nc3)C2=O)CC1` [Example 266, (5α,8β)-8-Hydroxy-8-propoxymethyl-2-[6-(2,2,2-trifluoro-ethoxy)-pyridin-3-yl]-2-aza-spiro[4.5]decan-1-one], the IC50 was 370 nM.

For `O=C1N(c2ccc(OCC(F)(F)F)cc2)CC[C@]12CC[C@@](O)(COCCC(F)(F)F)CC2` [Example 277, (5α,8α)-8-Hydroxy-2-[4-(2,2,2-trifluoro-ethoxy)-phenyl]-8-(3,3,3-trifluoro-propoxymethyl)-2-aza-spiro[4.5]decan-1-one], the IC50 was 40 nM.

Regarding `CCCS(=O)(=O)C[C@]1(O)CC[C@]2(CCN(c3ccc(OCC(F)(F)F)cc3)C2=O)CC1` [Example 305, (5α,8α)-8-Hydroxy-8-(propane-1-sulfonylmethyl)-2-[4-(2,2,2-trifluoro-ethoxy)-phenyl]-2-aza-spiro[4.5]decan-1-one], the IC50 amounted to 30 nM.

With `CCc1ccc(N2CC[C@]3(CC[C@H](OCc4ccccc4)CC3)C2=O)cc1` [Example 43, (5α,8α)-8-Benzyloxy-2-(4-ethyl-phenyl)-2-aza-spiro[4.5]decan-1-one], the 50% inhibitory concentration (IC50) was found to be 740 nM. In the case of `COCCc1ccc(N2CC[C@]3(CC[C@](O)(CC(C)C)CC3)C2=O)cc1` [Example 125, (5α,8β)-8-Hydroxy-8-isobutyl-2-[4-(2-methoxy-ethyl)-phenyl]-2-aza-spiro[4.5]decan-1-one] it was 1810 nM; in that of `CC(C)Oc1ccc(N2CC[C@]3(CC[C@@](O)(C4CC4)CC3)C2=O)cc1` [Example 197, (5α,8α)-8-cyclopropyl-8-hydroxy-2-(4-isopropoxyphenyl)-2-aza-spiro[4.5]decan-1-one], 20 nM.

In the case of `CC[C@]1(O)CC[C@]2(CCN(c3ccc(O[C@H](C)C(F)(F)F)nc3)C2=O)CC1` [Example 175, (5α,8α)-8-Ethyl-8-hydroxy-2-[6-((R)-2,2,2-trifluoro-1-methyl-ethoxy)-pyridin-3-yl]-2-aza-spiro[4.5]decan-1-one], the IC50 turned out to be 40 nM.

Consider `Cc1cnc(CNC(=O)O[C@H]2CC[C@@]3(CCN(c4ccc(OC(F)(F)F)cc4)C3=O)CC2)cn1` [Example 25, (5-Methyl-pyrazin-2-ylmethyl)-carbamic acid [(5α,8β)-1-oxo-2-(4-trifluoromethoxy-phenyl)-2-aza-spiro[4.5]dec-8-yl]ester], for which the IC50 came out at 80 nM. In the case of `CC[C@]1(O)CC[C@]2(CCN(c3ccc(OCC(F)(F)F)cc3)C2=O)CC1` [Example 88, (5α,8α)-8-Ethyl-8-hydroxy-2-[4-(2,2,2-trifluoro-ethoxy)-phenyl]-2-aza-spiro[4.5]decan-1-one] it was 42 nM.

As for `COC[C@]1(O)CC[C@]2(CCN(c3ccc(OC(C)C)nc3)C2=O)CC1` [Example 329, (5α,8α)-8-Hydroxy-2-(6-isopropoxy-pyridin-3-yl)-8-methoxymethyl-2-aza-spiro[4.5]decan-1-one], the IC50 was determined as 170 nM. For the compound `CCC[C@]1(O)CC[C@]2(CCN(c3ccc(C(C)C)nc3)C2=O)CC1` [Example 101, (5α,8α)-8-Hydroxy-2-(6-isopropylpyridin-3-yl)-8-propyl-2-aza-spiro[4.5]decan-1-one], the IC50 was 110 nM. As to `CCCNC(=O)O[C@H]1CC[C@@]2(CCN(c3ccc(CC)cc3)C2=O)CC1` [Example 6, Propyl-carbamic acid [(5α,8β)-2-(4-ethyl-phenyl)-1-oxo-2-aza-spiro[4.5]dec-8-yl]ester], the IC50 was 100 nM. In the case of `CC(C)OC[C@]1(O)CC[C@]2(CCN(c3ccc(O[C@@H](C)C(F)(F)F)nc3)C2=O)CC1` [Example 309, (5α,8α)-8-Hydroxy-8-isopropoxymethyl-2-[6-((S)-2,2,2-trifluoro-1-methyl-ethoxy)-pyridin-3-yl]-2-aza-spiro[4.5]decan-1-one] it was 10 nM; in that of `CC(C)OC[C@]1(O)CC[C@]2(CCN(c3ccc(O[C@H](C)C(F)(F)F)nc3)C2=O)CC1` [Example 316, (5α,8α)-8-Hydroxy-8-isopropoxymethyl-2-[6-((R)-2,2,2-trifluoro-1-methyl-ethoxy)-pyridin-3-yl]-2-aza-spiro[4.5]decan-1-one], 20 nM. In the case of `CC(C)[C@]1(O)CC[C@]2(CCN(c3ccc(O[C@@H](C)C(F)(F)F)nc3)C2=O)CC1` [Example 148, (5α,8α)-8-Hydroxy-8-isopropyl-2-[6-((S)-2,2,2-trifluoro-1-methyl-ethoxy)pyridin-3-yl]-2-aza-spiro[4.5]decan-1-one] it was 20 nM. In the case of `CC1=CC[C@@]2(CC1)CCN(c1ccc(OC(F)(F)F)cc1)C2=O` [Example 59, 8-Methyl-2-(4-trifluoromethoxy-phenyl)-2-aza-spiro[4.5]dec-7-en-1-one] it was 1600 nM. Consider `CCOC[C@]1(O)CC[C@]2(CCN(c3ccc(OC(F)(F)F)cc3)C2=O)CC1` [Example 117, (5α,8α)-8-Ethoxymethyl-8-hydroxy-2-(4-trifluoromethoxy-phenyl)-2-aza-spiro[4.5]decan-1-one], for which the IC50 was 20 nM.

On to `CCC(CC)OC[C@]1(O)CC[C@]2(CCN(c3ccc(O[C@@H](C)C(F)(F)F)nc3)C2=O)CC1` [Example 328, (5α,8α)-8-(1-Ethyl-propoxymethyl)-8-hydroxy-2-[6-((S)-2,2,2-trifluoro-1-methyl-ethoxy)-pyridin-3-yl]-2-aza-spiro[4.5]decan-1-one], for which the IC50 worked out at 10 nM.

For the compound `CCc1ccc(N2CC[C@]3(CC[C@](O)(COCC(F)F)CC3)C2=O)cc1` [Example 264, (5α,8β)-8-(2,2-Difluoro-ethoxymethyl)-2-(4-ethyl-phenyl)-8-hydroxy-2-aza-spiro[4.5]decan-1-one], the IC50 came to 200 nM. The value for `COC[C@]1(O)CC[C@]2(CCN(c3ccc([C@@H](O)C(F)(F)F)cc3)C2=O)CC1` [Example 138, (5α,8α)-8-Hydroxy-8-(methoxymethyl)-2-(4-((R)-2,2,2-trifluoro-1-hydroxyethyl)phenyl)-2-aza-spiro[4.5]decan-1-one] was 100 nM; that for `CC(C)(O)[C@]1(O)CC[C@]2(CCN(c3ccc(OCC(F)(F)F)cc3)C2=O)CC1` [Example 339, (5α,8α)-8-Hydroxy-8-(1-hydroxy-1-methyl-ethyl)-2-[4-(2,2,2-trifluoro-ethoxy)-phenyl]-2-aza-spiro[4.5]decan-1-one] was 120 nM; that for `CC(Oc1ccc(N2CCC3(CCC(O)CC3)C2=O)cc1)C(F)(F)F` (mixture of isomers) [Example 162, 8-Hydroxy-2-[4-(2,2,2-trifluoro-1-methyl-ethoxy)-phenyl]-2-aza-spiro[4.5]decan-1-one] was 220 nM. For the compound `CCC[C@]1(O)CC[C@]2(CCN(c3ccc(OC(C)C)cc3)C2=O)CC1` [Example 184, (5α,8α)-8-Hydroxy-2-(4-isopropoxyphenyl)-8-propyl-2-aza-spiro[4.5]decan-1-one], the IC50 was determined as 20 nM.
